Results from patent publication US11058713B2, “Treatment and diagnosis of ocular surface disorders” (Advaite LLC., priority 2017, dated 2021).
“Also recorded” adds a separate entry of the source.

Legend:
stimulated neutrophils = test: Stimulated neutrophils: inflammatory products (green staining strands), photographs; assay type: cell-based
[1] = system: neutrophil inflammatory products; test: Kinetic assay of neutrophil inflammatory products, stimulation by 1 nM PMA; assay type: cell-based; settings: FIGS. 9A and 9B
[2] = system: human corneal epithelial cells; test: Scratch wound healing of confluent corneal epithelial cells; assay type: cell-based; settings: anticoagulant dose heparin 1000 and 10,000 IU/ml; versus RPMI control and 100 IU/ml
Protocol: In this experiment human corneal epithelial cells were grown to confluence and scratch wounds were made.

[3] = system: human corneal epithelial cells; test: Cytotoxicity assay (LDH); assay type: cell-based
murine corneas = test: Murine model of neutrophil product (NETs) induced corneal disease; assay type: in vivo
Protocol: Neutrophil products (NETs) when applied to corneal surface induced epithelial disease and fluorescein staining. […] Protein levels of inflammatory cytokines were also determined (IL-lb and IP-10) using a Magpix platform.
Whether reducing OSM levels in naive NETs using heparin or OSM NAb abrogates NETs induced epitheliopathy in murine corneas was investigated. Naive NETs, heparinized NETs and OSM NAb incubated NETs was applied to naïve murine corneas for five consecutive days. […] At Day 5, corneas were excised and abundance of inflammatory cytokines (IL-1β, IL-6 and IP-10) were determined in lysates. […] FIG. 16.

mouse corneas = test: Recombinant OSM protein induced corneal epithelial disease; assay type: in vivo; settings: for corneal fluorescein staining at Day 5: application of OSM, OSM incubated with heparin or OSM incubated with OSM NAb
Text: Excessive amounts of OSM can cause corneal epithelial disease similar to that seen in DED patients. […] OSM inhibitors used can be selected from neutralizing antibodies, neutralizing peptides and small molecules and other gene based approaches. These OSM inhibitors can be used independently as therapeutic proteins/peptides/small molecules for DED treatment.
In addition, whether OSM recombinant protein can produce epitheliopathy similar to NETs and whether reducing OSM levels using heparin or OSM NAb abrogates that effect was also investigated. […] These experiments indicate that NETs cause corneal epitheliopathy possibly due to presence of OSM and epitheliopathy can be prevented with heparin. To test this theory, a patient with oGVHD who had corneal and conjunctival epitheliopathy was treated with heparin eye drop (100 IU/mL) three times a day for four weeks.

[4] = system: mucocellular aggregates from a patient with severe tear deficient DED; test: Ex vivo dissolution of mucocellular aggregates (Hematoxylin-Eosin and Sytox Green); set-up: species or system human; settings: sub-anticoagulant heparin 100 IU/ml; substantially intact with culture media (RPMI) only
Protocol: The extracellular structures (green strands) were dissolved when treated with sub-anticoagulant heparin (100 IU/ml), but remained substantially intact when treated with only the culture media (RPMI).

oncostatin M (OSM) [5] = test: Recombinant OSM protein levels after incubation with heparin or NAb; assay type: binding; settings: FIG. 15
Protocol: (§1) The molecular component of Neutrophil Extracellular Traps (NETs) that may cause epitheliopathy was investigated. […] OSM was present in abundance in mucocellular aggregates (MCA) collected from definite oGVHD patients. OSM is a heparin binding protein, therefore incubation with heparin or Neutralizing antibody (NAb) reduced recombinant OSM protein levels (FIG. 15).

oncostatin M (OSM) [6] = biological target: T1, oncostatin M (OSM) (Mus musculus, UniProt P53347); test: OSM levels in murine NETs; assay type: binding; settings: 614.67±95.73 pg/mL without heparin
T1 construct: In murine NETs, OSM is present in great abundance; endogenous in cells; host or cells: murine neutrophil extracellular traps (NETs)
T1 sequence (P53347 23-206): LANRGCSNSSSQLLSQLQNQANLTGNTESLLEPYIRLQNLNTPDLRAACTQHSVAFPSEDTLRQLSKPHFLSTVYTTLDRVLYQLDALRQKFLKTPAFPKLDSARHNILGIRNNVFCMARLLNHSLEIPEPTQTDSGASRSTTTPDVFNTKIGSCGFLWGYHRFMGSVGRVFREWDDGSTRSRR
Protocol: as §1

[7] = system: immortalized meibomian gland epithelial cells; test: Meibomian gland cell differentiation, lipid accumulation by LipidTOX staining; assay type: cell-based, human
Text: Meibomian gland disease is a conspicuous feature of oGVHD. As compared to normal meibomian gland, patients with oGVHD have extensive atrophy or truncation of meibomian glands. […] To determine the effect of NETs on meibomian glands, immortalized meibomian gland epithelial cells were cultivated and differentiated. Lipid accumulation was detected using LipidTOX staining. […] The reduction in lipid accumulation with NETs was abrogated with addition of NGAL NAb (21.21±0.83 A.U). […] The reduction of lipid accumulation with rNGAL was abrogated with addition of NGAL NAb (17.82±0.43 A.U) and heparin (15.66±1.72 A.U).

human MG cells = test: Meibomian gland cell proliferation; assay type: cell-based; settings: KSFM medium with rNGAL; reduction with rNGAL on addition of NGAL NAb or heparin
Text: Next, the effect of NGAL on proliferation of human MG cells was investigated. […] FIG. 20. […] The reduction of MG cell proliferation with rNGAL was abrogated with addition of NGAL NAb and heparin.

[8] = Heparin addition to NETs, protein level, Magpix platform
[9] = DFM medium with rNGAL, rNGAL plus NGAL NAb or rNGAL plus heparin, DFM alone 24.92±1.21

Molecule: Enoxaparin
- neutrophil inflammatory products (green staining strands) (stimulated neutrophils; Enoxaparin 10, 20, 40 and 80 μg/mL, FIG. 6): dose dependent fashion
- inflammatory strands of neutrophils (stimulated neutrophils; Enoxaparin at 80 μg/mL): almost completely
- amount of neutrophil inflammatory products produced with stimulation by 1 nM PMA [1]: dose dependent reduction; also recorded: dose dependent manner

Molecule: heparin
- neutrophil inflammatory products (green staining strands) (stimulated neutrophils; heparin 0.01, 0.1, 1, 10 and 100 IU/mL, FIG. 5): dose dependent fashion
- amount of inflammatory strands of neutrophils (stimulated neutrophils; heparin at 100 IU/ml): almost completely
- amount of neutrophil inflammatory products produced with stimulation by 1 nM PMA [1]: dose dependent reduction; also recorded: dose dependent manner
- Epithelial cell healing (scratch wounds) [2]: significantly delayed
- LDH ([3]; anticoagulant dose heparin 1000 and 10,000 IU/ml, versus RPMI control and 100 IU/ml): significantly higher
- human corneal epithelial cell cytotoxicity ([3]; anticoagulant dose of heparin (1000 and 10,000 IU/ml)): causes human corneal epithelial cell cytotoxicity
- human corneal epithelial cell cytotoxicity ([3]; sub-anticoagulant dose of heparin (100 IU/ml)): does not cause cytotoxicity
- epithelial disease and fluorescein staining (murine corneas; Heparin (100 IU/ml) added to NETs applied to corneal surface): significantly reduced
- corneal abundance of IL-lb (murine corneas; [8]): significantly reduced
- corneal abundance of IP-10 (murine corneas; [8]): significantly reduced
- corneal fluorescein staining at Day 5 (murine corneas; naive NETs, heparinized NETs or OSM NAb incubated NETs applied to naïve murine corneas for five consecutive days): 0.80±0.49
- corneal fluorescein staining at Day 5 (mouse corneas): 1.20±0.20
- corneal fluorescein staining induced by OSM (mouse corneas; heparin 100 IU/ml or neutralizing antibody added to recombinant OSM, FIG. 13): significantly reduced
- extracellular structures (green strands) of mucocellular aggregates [4]: dissolved
- recombinant OSM protein levels (oncostatin M (OSM) [5]): reduced
- OSM levels in heparinized NETs (oncostatin M (OSM) [6]): 19.95 ± 0.00 pg/mL
- fluorescence intensity of LipidTox Green neutral lipid stain (accumulation of lipids) ([7]; DFM medium with NETs, heparinized NETs or NETs plus NGAL NAb, DFM alone 24.92±1.21, KSFM 6.93±0.57): 33.98±2.18 A.U
- fluorescence intensity of LipidTox Green neutral lipid stain (accumulation of lipids) [7, 9]: 15.66±1.72 A.U
- MG cell proliferation (human MG cells): abrogated

B1: rNGAL: recombinant NGAL (neutrophil gelatinase-associated lipocalin) (protein, UniProt P80188 21-198, looked up)
Neutrophil …: QDSTSDLIPAPPLSKVPLQQNFQDNQFQGKWYVVGLAGNAILREDKDPQKMYATIYELKEDKSYNVTSVLFRKKKCDYWIRTFVPGCQPGEFTLGNIKSYPGLTSYLVRVVSTNYNQHAMVFFKKVSQNREYFKITLYGRTKELTSELKENFIRFSKSLGLPENHIVFPVPIDQCIDG
- fluorescence intensity of LipidTox Green neutral lipid stain (accumulation of lipids) [7, 9]: 10.88±0.35 A.U
- MG cell proliferation (human MG cells): significantly decreased

B2: OSM: OSM recombinant protein applied to mouse corneas (protein, UniProt P53347 25-206, looked up)
Oncostatin-M: NRGCSNSSSQLLSQLQNQANLTGNTESLLEPYIRLQNLNTPDLRAACTQHSVAFPSEDTLRQLSKPHFLSTVYTTLDRVLYQLDALRQKFLKTPAFPKLDSARHNILGIRNNVFCMARLLNHSLEIPEPTQTDSGASRSTTTPDVFNTKIGSCGFLWGYHRFMGSVGRVFREWDDGSTRSRR
- corneal fluorescein staining at Day 5 (mouse corneas): 8.75±0.48
